Reference: patent US8318954B2, “Cleavable carnitine compound” (Nou Life Sciences, Inc., priority 2006, dated 2012)

Experiments:
Format in all cases: in vivo
C. elegans [1] = experiment: Visual scoring of C. elegans after overnight incubation with compound in 24 well plate; details: for visual scoring of well clearance: L3/L4-stage N2 animals
Experimental: (§1) One 24 well microtiter plate was set up and incubated overnight on the shaker at 20 C. Each well on the plate was set up with 600 L3/L4-stage N2 animals in NGM with a 1:20 dilution of concentrated HB101 E. coli (food source) in a volume of 300 μl. Before the animal/HB101 solution was added, test compounds were pipetted into wells. For water controls and compound stocks/dilutions in water (DHLA, NAC) 6 μl was added to each well (1:50 dilutions). For DMSO controls and compound stocks/dilutions in DMSO (LA) 3 μl was added to each well (1:100 dilutions). No OD620 measurements were taken but the animals were visually scored after 19 h incubation.
as §1, with “at 20°” for “at 20”, “For” for “For water controls and compound stocks/dilutions in water (DHLA, NAC) 6 μl was added to each well (1:50 dilutions). For”, “DMSO (LC)” for “DMSO (LA)”, “h incubation).” for “h incubation.”
as §1, with “at 20°” for “at 20”, “For” for “For water controls and compound stocks/dilutions in water (DHLA, NAC) 6 μl was added to each well (1:50 dilutions). For”, “DMSO (LC)” for “DMSO (LA)”, “after 22” for “after 19”, “h incubation).” for “h incubation.”

C. elegans [2] = experiment: Thermal avoidance (TAV) 3 step dose response testing; details: for effects indicating increased sensory sensitivity: 0%, 6%, 12% laser intensity
Description: The present invention includes a series of compounds that may be useful for increasing sensory neuron function in certain human neuropathological conditions. C. elegans contains a number of sensory neurons which are responsible for detecting a variety of external stimuli. One such stimulus (heat) can be detected and quantified in C. elegans by the use of thermal avoidance (TAV) technology available through NemaRx. The goal of this experiment was to provide an initial characterization of the compounds via TAV. Specifically, it was asked whether any of these compounds can lead to an increase in the thermal stimulus-induced behavioral response measured by TAV. N2 strain C. elegans animals were used for this project, which have ‘normal’, i.e. wildtype, sensory neuron function. Four compounds were received by NemaRx for TAV testing. These compounds were:
as §1
Dose Responses—setup: All of the wells from the 24 well plate were used for dose response testing and the entire well contents (600 animals) were used for each test. Prior to being placed on the agar plate for TAV testing each sample was processed as follows: • sample were transferred to glass tube containing 7 ml PBS • animals were allowed to settle for 5 minutes before most of the supernatant was removed (approx. 0.5 ml remaining in tube) • 7 ml PBS was then added, mixed and animals were allowed to settle for 5 minutes most of the supernatant was then removed • animals were removed and transferred to TAV testing plate (NRx Application pattern A) • plate was allowed to dry for 10 minutes (plate cover removed) and TAV testing was initiated. Per plate settings for the dose response experiments were as follows:
Dose Responses—general notes on analysis: A response of the animals to a thermal stimulus (laser) which is applied to the head region can be detected both by a change in the direction of movement, as well as by a change in speed occurring within the test interval where the stimulus is applied. • direction of movement. […] Animals that show a strong change in the direction of movement, i.e. reversals, are classified as LR5 responders. […] LR5 responders show a thermal intensity-dependent increase in the speed of movement (starting off with less than <prelaser speed at low intensities up to > pre-laser speed at high intensities)
The dose response experiments for the current project were carried out with 0% (background control), 6% and 12% settings of laser intensity. In practice, 6% is on the edge of laser intensity required to detect an increase in the number of LR5 responders. As such, 6% should be a useful intensity-setting to detect compound-induced increased sensitivity in the animals. The 12% setting was chosen because this intensity typically gives a robust increase in the number of LR5 responders.
Total Responder speeds, ‘LR1 Responder speeds’ and ‘LR5 Responder speeds’ are shown as normalized speeds to allow better comparison between samples. For normalization purposes the average pre-laser speed is set at 1.0 and responder speeds are calculated relative to this value.
One 24 well microtiter plate was set up and incubated overnight on the shaker at 20° C. Each well on the plate was set up with 600 L3/L4-stage N2 animals in NGM with a 1:20 dilution of concentrated HB101 E. coli (food source) in a volume of 300 μl. […]

C. elegans [3] = experiment: Thermal avoidance (TAV) single intensity testing (6% laser intensity)
Experimental: (§2) One 24 well microtiter plate was set up and incubated overnight on the shaker at 20° C. Each well on the plate was set up with 600 L3/L4-stage N2 animals in NGM with a 1:20 dilution of concentrated HB101 E. coli (food source) in a volume of 300 μl. Before the animal/HB101 solution was added, test compounds were pipetted into wells. 3 μl each for the DMSO controls and LA dilutions were added to each well (1:100 dilutions). Controls and LA dilutions were done in triplicate (total of 9 wells).
6% Response tests—setup: All 9 wells from the 24 well plate were used for 6% testing and the entire well contents (600 animals) were used for each test. Prior to being placed on the agar plate for TAV testing each sample was processed as described for ‘Dose Responses’.
Dose Responses—general notes on analysis: Analysis similar as described in ‘Dose Responses’. In addition, ‘Response ratios’ as well as ‘A Speed responses’ both give measures of how much individual animals changed speed in response to the stimulus (additional information available upon request).
as §2, with “wells. 6” for “wells. 3”, “the water” for “the DMSO”, “and compound” for “and LA”, “well (1:50” for “well (1:100”, “of 15” for “of 9”
6% Response tests—setup: All 15 wells from the 24 well plate were used for 6% testing) and the entire well contents (600 animals) were used for each test. Prior to being placed on the agar plate for TAV testing each sample was processed as described for ‘Dose Responses’.
as §2, with “LC” for “LA”

[4] = even at highest concentration 2 mM (LC)

Molecule | visual scoring of well clearance (C. elegans [1]; LA1, 10 mM final concentration in well, 19 h incubation) | visual scoring of well clearance (C. elegans [1]; LA2, 5 mM final concentration in well, 19 h incubation) | effects indicating increased sensory sensitivity (C. elegans [2]; even at highest non-toxic concentration of 2 mM) | speed of LR1 responders (C. elegans [2]; LA3 dilution) | percentage of LR5 responders (C. elegans [2]; dilutions LA4, LA5 and LA6, similar to the last DMSO control) | toxicity evident from 'Frames viewed' and 'Average Speeds' (C. elegans [2]; two highest LA concentrations (LA1, LA2)) | effects indicating increased sensory sensitivity (C. elegans [3]; 2 mM or 1 mM) | visual scoring (toxicity) (C. elegans [1]; LC, 22 h incubation) | visual scoring (toxicity) (C. elegans [1]; all LC dilutions LC1-LC6 (up to 2 mM), 19 h incubation) | effects indicating increased sensory sensitivity (C. elegans [2]; [4]) | effects indicating increased sensory sensitivity (C. elegans [3]; [4])
O=C(O)CCCCC1CCSS1 (centres unmarked) [LA, Lipoic acid] | most bacteria remaining | some bacteria remaining | No obvious effects detected | relatively low | relatively high | toxicity is observed | No effects detected |  |  |  | 
Acetyl-L-Carnitine-Lipoic acid conjugate [LC Conjugate] |  |  |  |  |  |  |  | no toxicity observed | no toxicity observed | No obvious effects detected | No obvious effects detected
